Active and inactive are the calls of the source. How the calls were made is not given here.

This series in a line: Cytotoxicity activity against human HepG2 cells assessed by CellTiter-Glo luminescent cell viability assay. Format: toxicity, cell-based. The conditions noted are these: HepG2 cells, read-out: IC50 relative. The arrangement: assay stage confirmatory assay, source tissue liver. (ATP-based viability assays read luminescence as a measure of living cells.)

In the case of `CCN1CCN(CCCNC(=O)c2cc3c(=O)n(C)c4ccccc4c3s2)CC1`, the CC50 is 4.1 µM (active). For the compound `COc1ccc(C)cc1S(=O)(=O)N1CCCC(C(=O)N2CCN(c3ccccc3F)CC2)C1` (stereo unspecified), the CC50 is 9.9 µM (inactive). Turning to `Cc1ccc(S(=O)(=O)c2cn(C)c3cc(N4CCN(C)CC4)c(F)cc3c2=O)cc1`, the CC50 was 15.1 µM (inactive). For `Cc1c(Cl)sn(-c2ccc(Cl)cc2)c1=O`, the CC50 was 4.4 µM (active). With `O=C(Nc1ccc(Cl)cc1)N1CCCN(Cc2ccc(F)cc2)C1`, the CC50 is 6.7 µM (active).

`COc1ccccc1C(=O)Nc1ccccn1`: the CC50 is 8.4 µM (inactive). Take `COc1ccc(-c2noc(N3CCC(C(=O)NCCCN4CCC(C)CC4)CC3)n2)cc1`: the CC50 was 19.2 µM (inactive). Turning to `CCn1c(=O)n(CC)c2cc(N3CCCC3)c(NC(=O)c3cccc(OC)c3)cc21`, the CC50 was 20.2 µM (inactive).

In the case of `Cc1cc(Br)cc(C)c1OCCCCN(C)C`, the CC50 is 9.8 µM (active). The same measure for `Cc1n[nH]c(C)c1S(=O)(=O)N1CCCC(C(=O)Nc2ccc(Br)cc2)C1` (stereo unspecified): 26.3 µM (inactive); for `COc1cc(-c2noc(-c3ccc4c(c3)OCO4)n2)cc(OC)c1OC`: 0.1 µM (active); for `Clc1nss/c1=N\c1ccc(Br)cc1`: 24.2 µM (inactive). In the case of `COc1ccc(Nc2nc(NCCCO)c3ccccc3n2)cc1`, the CC50 was 8.2 µM (active). The result for `CCCN1C(=O)COc2cc(-c3noc(C(=O)NC4CCN(Cc5ccccc5)CC4)n3)ccc21` reads 15.2 µM (inactive).

For the compound `Cc1ccc(C)c(N2CCN(CCCNC(=O)C3CCN(c4ccc5nnc(C)n5n4)CC3)CC2)c1`, the CC50 was 8.7 µM (active).

On to `O=S1(=O)C[C@H](NC2CCCC2)[C@@H](S(=O)(=O)c2cccs2)C1`, for which the CC50 is 16.1 µM (active). Consider `COc1ccc(-c2nc(NCCN3CCN(C)CC3)c3ccccc3n2)cc1`, for which the CC50 was 7.9 µM (active). `Cc1cc(C)cc(NC(=O)CC2CCCN(c3cn[nH]c(=O)c3)C2)c1` (stereo unspecified): the CC50 was 2.4 µM (active). With `CCOc1ccc(C(=O)Nc2nc3ccc(S(=O)(=O)N(C)C)cc3s2)cc1`, the CC50 is 19.3 µM (inactive). For the compound `O=C(c1ccc(F)cc1)N1CCN(Cc2noc(-c3ccc(F)cc3)n2)CC1`, the CC50 was 5.8 µM (active). The same measure for `CCOc1ccccc1C(=O)N1CCN(c2ccccc2OCC)CC1`: 15.1 µM (inactive); for `COc1ccccc1OCCOCCOCCOc1ccccc1OC`: 12.6 µM (inactive); for `CCS(=O)(=O)c1ncc(Cl)c(C(=O)Nc2ccccc2Cl)n1`: 2.5 µM (active). For the compound `COc1ccc(C(=O)N2CCN(Cc3noc(-c4ccc(F)cc4)n3)CC2)cc1`, the CC50 was 4.5 µM (active). Consider `c1ccc(CN2C[C@H]3CCNC[C@H]32)cc1`, for which the CC50 is 15.9 µM (inactive).

On to `CCN1C(=O)COc2ccc(NC(=O)c3cc(-c4ccc5c(c4)OCCO5)on3)cc21`, for which the CC50 is 50 µM (inactive). On to `CCOc1ccc(C(=O)N2CCN(Cc3noc(-c4ccc(F)cc4)n3)CC2)cc1`, for which the CC50 is 4.8 µM (active).

In the case of `Cc1ccc(-c2noc(-c3cccc(OCC(=O)N4CCN(C)CC4)c3)n2)cc1`, the CC50 was 6.3 µM (active).

As to `CC(C)S(=O)(=O)N1CC(Oc2ccc(-c3noc(-c4ccncc4)n3)cc2)C1`, the CC50 is 19.7 µM (inactive). Take `O=S1(=O)C[C@H](NC2CCCCC2)[C@@H](S(=O)(=O)c2ccc(Cl)cc2)C1`: the CC50 is 17 µM (active).

Take `O=C(c1ccoc1)N1CCCN(Cc2ccc3c(c2)OCO3)c2ccccc21`: the CC50 was 20.4 µM (inactive). For `OCCOCCNCc1ccc(-c2cc(Cl)cc(Cl)c2)o1`, the CC50 was 11.7 µM (active). As for `CCCc1nnsc1C(=O)Nc1nc2ccccc2[nH]1`, the CC50 is 19 µM (inactive). For `O=C(Nc1nccs1)C1=C(c2ccccc2)S(=O)(=O)CCO1`, the CC50 is 7.7 µM (active). On to `CCN(CC)S(=O)(=O)c1ccc(C(=O)Nc2cc(C)nn2-c2nc(C)cc(=O)[nH]2)cc1`, for which the CC50 is 6.5 µM (inactive).

`NCC1CN(CC2CC2)CC12CCCCC2` (stereo unspecified): the CC50 was 13.1 µM (inactive).

`CCN(CC)c1cc(C)nc(Nc2ccc(NC(=O)C3CCCO3)cc2)n1` (stereo unspecified): the CC50 was 11.3 µM (active). As to `Cc1ccc(-c2cnn3c(N4CCN(CCO)CC4)cc(C)nc23)cc1`, the CC50 was 8.9 µM (active).

Take `CCC(C)NC(=O)COc1ccc(-c2nc(C(C)C)no2)cc1` (stereo unspecified): the CC50 is 4.2 µM (active). Regarding `COc1cc2c(cc1C(=O)Nc1ccccc1F)OCCCO2`, the CC50 was 13.8 µM (inactive).

As to `O=c1cc(CSc2ccccc2)nc2sc(-c3ccco3)nn12`, the CC50 is 3.2 µM (active). Turning to `CCN(CC)CCCNC(=O)C1CCCN(c2ncc(-c3ccc(F)cc3)cn2)C1` (stereo unspecified), the CC50 is 10.9 µM (active).

Take `Cc1[nH]c(C(=O)Nc2ccc(C#N)cc2)c(C)c1S(=O)(=O)N1CCCC1`: the CC50 was 17.9 µM (inactive).

Consider `CCCN1C(=O)COc2ccc(-c3csc(NC(=O)CC(C)C)n3)cc21`, for which the CC50 was 18 µM (inactive). Consider `O=C(NCCN1CCCC1)C1CCN(c2ncccc2-c2nc(-c3ccccc3)no2)CC1`, for which the CC50 was 7.9 µM (active).

For the compound `CC(C)c1ccccc1OCC(=O)Nc1cccnc1`, the CC50 is 4 µM (active). Turning to `CCOc1ccc(S(=O)(=O)N2CC(C)CC(C)C2)cc1C` (stereo unspecified), the CC50 is 17 µM (inactive).

Turning to `CCCN1CCN(CCCNC(=O)C2CCN(c3nc(-c4ccc(OC)cc4)no3)CC2)CC1`, the CC50 is 13 µM (active). The result for `CCCN(CCC)CCNC(=O)Cn1cnc2onc(-c3ccc(Cl)cc3)c2c1=O` reads 5.9 µM (active); that for `O=C(CCC1CCCN(c2cc(NC3CC3)ncn2)C1)N1CCN(c2ccc(F)cc2)CC1` (stereo unspecified), 9.1 µM (active); that for `CN(C)CCNc1oc(-c2ccc(S(=O)(=O)N3CCCCCC3)cc2)nc1C#N`, 18 µM (inactive). Turning to `COc1ccc2c(c1)cc(C(=O)N[C@@H](C)C(=O)N1CCN(Cc3ccccc3)CC1)n2C`, the CC50 is 13.1 µM (inactive). Turning to `O=S1(=O)C[C@H](NCCc2c[nH]c3ccccc23)[C@@H](S(=O)(=O)c2cccs2)C1`, the CC50 was 11.6 µM (inactive). Regarding `c1ccc(-c2cnn3c(-c4ccco4)ccnc23)cc1`, the CC50 was 0.5 µM (active). For `CCCCN[C@H]1CS(=O)(=O)C[C@@H]1S(=O)(=O)c1ccc(Cl)cc1`, the CC50 was 9.3 µM (active).

With `CCCCc1cc(=O)oc2c(C)c(OCC(=O)NCCN(C)C)ccc12`, the CC50 was 13 µM (inactive). The result for `COc1cccc(NC(=O)Nc2nc3ccc(S(C)(=O)=O)cc3s2)c1` reads 18.1 µM (inactive); that for `Cc1ccc(NC(=O)c2nc(S(C)(=O)=O)ncc2Cl)cc1`, 4.1 µM (active); that for `Cc1c(O)ccc2c(CN3CCN(c4ccc(F)cc4)CC3)cc(=O)oc12`, 24.8 µM (inactive).

Consider `CC(C)CN1CCN(Cc2nc(Cn3ccn4nc(-c5ccccc5)cc4c3=O)no2)CC1`, for which the CC50 was 13.6 µM (active).

`CC1=NN(C(=O)c2ccc(N(C)C)cc2)C(O)(C(F)(F)F)C1` (stereo unspecified): the CC50 was 25 µM (inactive). The same measure for `CCS(=O)(=O)c1ncc(Cl)c(C(=O)Nc2ccc(OC)cc2)n1`: 2.6 µM (active); for `CCN1CCN(c2ncc(C(=O)Nc3ccc(Br)cc3)c(C)n2)CC1`: 13.8 µM (inactive). The same measure for `O=C(CCn1sc2ccccc2c1=O)NCCc1c[nH]c2ccccc12`: 5 µM (active); for `CCn1cc(CN2C[C@@H]3C[C@H](NC(C)=O)CN3C(=O)[C@@H]2CC(C)C)c2ccccc21`: 13.6 µM (inactive); for `CC1CCN(S(=O)(=O)c2ccc(-c3nc(C#N)c(NCCCN(C)C)o3)cc2)CC1`: 5.8 µM (active). As for `O=S1(=O)C[C@H](NC2CCCC2)[C@@H](S(=O)(=O)c2ccc(Cl)cc2)C1`, the CC50 was 12.1 µM (active). Regarding `CCN(CC)S(=O)(=O)c1cccc(C(=O)Nc2cccc(F)c2)c1`, the CC50 is 10.4 µM (active). In the case of `Cc1cccc(-c2noc(-c3ccc(N4CCN(C)CC4)nc3)n2)c1`, the CC50 is 5 µM (active). The same measure for `O=C(C1CCCC1)N1CC(Oc2ccc(-c3noc(C4CCOCC4)n3)cc2)C1`: 3.2 µM (active).

Take `COc1cccc(S(=O)(=O)N2CCC3(CC2)CC(CCOc2ccncc2)CCO3)c1` (stereo unspecified): the CC50 is 13.2 µM (active). The same measure for `CN(CC(=O)NCCN1CCC(Cc2ccccc2)CC1)S(=O)(=O)c1cccc2nsnc12`: 9.1 µM (active). `CCCCOc1ccc(-c2cc3c4nnc(CCC(=O)N5CCN(CC)CC5)n4ccn3n2)cc1`: the CC50 is 4.2 µM (active). As for `CC1(C)Cc2c(sc(NC(=O)NCc3cccnc3)c2C(N)=O)CO1`, the CC50 is 12.4 µM (inactive). Take `O=C(CCCCCn1sc2ccccc2c1=O)Nc1ccc2c(c1)OCO2`: the CC50 is 3.5 µM (active).

In the case of `COc1ccc(NC(=O)C2=C(c3ccccc3)S(=O)(=O)CCO2)c(OC)c1`, the CC50 was 9.7 µM (active). The result for `COCCCN[C@H]1CS(=O)(=O)C[C@@H]1S(=O)(=O)c1ccc(Cl)cc1` reads 16.7 µM (active). With `CN(C)CCNC(=O)c1ccc2c(c1)n(Cc1cccc(F)c1)c(=O)c1ccnn12`, the CC50 was 12.7 µM (active). The same measure for `CN(C)CCOc1ccc2ccccc2c1Br`: 12 µM (active); for `COc1ccc(C(=O)N[C@@H]2CN(Cc3ccccc3)C[C@H]2CN(C)C)cc1F`: 12.1 µM (active). For `COc1ccc(-c2cc(C(=O)N3CCCCC3C)n[nH]2)cc1S(=O)(=O)N1CCCCC1` (stereo unspecified), the CC50 was 20.2 µM (inactive).

For the compound `CC(C)OCCCN[C@H]1CS(=O)(=O)C[C@@H]1S(=O)(=O)c1ccc(Cl)cc1`, the CC50 was 16 µM (active). `CCOc1ccccc1NC(=O)c1cnc2sc(N3CCOCC3)nn2c1=O`: the CC50 was 15.6 µM (inactive).

Regarding `CCN1CCN(C(=O)C2CCN(c3nn4cc(-c5ccc(C)cc5)nc4s3)CC2)CC1`, the CC50 is 9.5 µM (active). `Clc1ccc(OCC2CCCNC2)c2ccccc12` (stereo unspecified): the CC50 is 2 µM (active).

Regarding `COc1ccc(-c2ccc(CNCCCN3CCOCC3)o2)cc1Cl`, the CC50 is 12.7 µM (inactive).

Values taken from ChEMBL document CHEMBL5303711, “ECBD screening data for assay EOS300108” (2023).
